{"source": "patent US10800754B2", "about": "“Heterocyclic amide compound” (TAKEDA PHARMACEUTICAL COMPANY LIMITED, priority 2016, dated 2020)", "key": {"human PRS protein": {"target": "T1, human PRS protein (Homo sapiens, UniProt P07814)", "T1 construct": "to construct His-Avi-hEPRS (998-1512) expression plasmid; His tag (N); Avi tag (N); TEV cleavage site (ENLYFQ/GS, encoded by forward primer hEPRS-TEV-NheF) (N); made in house; host or cells: E. coli BL21(DE3)", "T1 sequence (P07814 998-1512)": "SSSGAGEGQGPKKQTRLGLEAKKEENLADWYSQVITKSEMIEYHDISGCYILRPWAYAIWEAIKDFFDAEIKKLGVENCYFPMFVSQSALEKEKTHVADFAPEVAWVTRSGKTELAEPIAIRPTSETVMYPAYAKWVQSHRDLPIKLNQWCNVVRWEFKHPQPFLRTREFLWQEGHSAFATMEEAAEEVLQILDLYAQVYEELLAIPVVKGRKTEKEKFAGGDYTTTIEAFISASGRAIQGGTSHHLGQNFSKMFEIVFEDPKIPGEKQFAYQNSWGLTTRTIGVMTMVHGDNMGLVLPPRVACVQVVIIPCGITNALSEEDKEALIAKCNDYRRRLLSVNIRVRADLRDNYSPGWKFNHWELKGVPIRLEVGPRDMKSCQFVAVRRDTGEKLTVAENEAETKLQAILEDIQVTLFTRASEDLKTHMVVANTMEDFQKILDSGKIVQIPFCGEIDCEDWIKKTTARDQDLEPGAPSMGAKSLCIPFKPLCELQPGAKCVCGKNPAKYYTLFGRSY", "assay": "PRS inhibitory activity (ATP/[32P]pyrophosphate exchange enzyme reaction)", "assay_type": "biochemical", "settings": "300 nM test compound; recombinant human PRS (EPRS 998-1512); read-out: inhibitory rate (%) of PRS", "method": "The PRS inhibitory activity of the compounds of the present invention was evaluated by the following method.\nAn expression plasmid of Catalytic Domain of human EPRS was obtained by PCR using human skeletal muscle cDNA Library (Takara Bio Inc.) as a template and 2 kinds of Primers 5′-[…]-3′ (hEPRS-TEV-NheF) (SEQ ID NO: 1) and 5′-[…]-3′ (hEPRS-St-Not-R) (SEQ ID NO: 2). PCR was performed using PrimeStar GXL DNA Polymerase (Takara Bio Inc.) and included (1) 98° C., 1 min, (2) cycles of 98° C., 10 sec, 65° C., 10 sec, 72° C., 1 min, and (3) reaction at 72° C., 1 min. This was cleaved with Nhe I and Not I (Takara Bio Inc.) and inserted using Ligation High (TOYOBO CO., LTD.) into the Nhe I/Not I site of pET21a (Novagen) with His-Avitag inserted thereinto. This was introduced into ECOS JM109 (NIPPON GENE CO., LTD.) to construct His-Avi-hEPRS (998-1512) expression plasmid.\nRecombinant human PRS protein was prepared by transforming the His-Avi-hEPRS (998-1512) expression plasmid prepared above into ECOS Competent E. coli BL21(DE3) (NIPPON GENE CO., LTD.). Escherichia coli obtained by transformation was inoculated into 300 mL of LB medium (1% peptone, 0.5% yeast extract, 0.5% sodium chloride, 0.01% ampicillin) and cultured at 30° C. for 16 hr. The obtained culture medium was transferred into a jar culture tank charged with 6 L of the main fermentation medium (0.3% potassium dihydrogen phosphate, 0.6% disodium hydrogen phosphate, 0.1% ammonium chloride, 0.05% sodium chloride, 0.024% magnesium sulfate, 0.02% NEWPOL LB-625, 1.5% sorbitol, 1.5% casamino acid, 0.5% yeast extract, 0.01% ampicillin) and culturing was started at 37° C., quantity of airflow 5 L/min, stirring rotating speed 400 rpm. At the time point when the turbidity of the culture medium reached about 550 Klett units, the culture temperature was lowered to 16° C., isopropyl-β-D-thiogalactopyranoside (IPTG) was added to the final concentration 0.1 mM, and culturing was performed for another 16 hr to induce expression of human PRS. After completion of culturing, the culture medium was centrifuged at 5,000 rpm for 10 min. The obtained human PRS expressing Escherichia coli was suspended in a buffer containing 50 mM Tris-HCl (pH 8.0), 150 mM NaCl, 1 mM DTT, 5 U/ml Benzonase, 20 mM Imidazole and sonicated using Sonifier (BRANSON). The homogenate was centrifuged (33,000×G, 60 min, Beckman Coulter), the obtained supernatant was subjected to adsorption by passage through Ni-NTA Superflow (QIAGEN) column equilibrated in advance with 50 mM Tris-HCl (pH 8.0), 300 mM NaCl, 1 mM DTT, and elution was performed with a buffer containing 50 mM Tris-HCl (pH 8.0), 300 mM NaCl, 1 mM DTT, 250 mM Imidazole. Furthermore, gel filtration was performed using […] equilibrated in advance with a buffer containing 50 mM Tris-HCl (pH 8.0), 150 mM NaCl, 1 mM DTT, 10% glycerol to give purified human PRS protein. The protein concentration was measured using BCA Protein Assay Kit (PIERCE) and BSA as the standard.\nA test compound was dissolved in 5 μL of an assay buffer (50 mM Tris-HCl (pH 7.5), 20 mM KCl, 1 mM DTT, 0.01% Tween 20) and incubated for 60 min with 5 μL of 40 nM human PRS protein dissolved in the assay buffer containing 40 mM MgCl2. An enzyme reaction of the human PRS protein was started by adding 10 μL of a substrate solution containing 300 μM ATP, 160 μM L-Proline, 400 μM pyrophosphate, [^32P]pyrophosphate (PerkinElmer, Waltham, Mass.) prepared to 1 MBq/mL. After incubation at room temperature for 30 min, the reaction was discontinued by adding 50 μL of discontinuation/washing solution (1M HCl, 200 mM sodium pyrophosphate) to the reaction mixture. The reaction solution was transferred to a filter plate (Merck Millipore, Billerica, Mass.) previously added with 200 μL of charcoal solution (0.5% HCl solution containing 10% charcoal (w/v)). […]"}, "[1]": {"test_system": "human ovarian cancer cell A2780", "assay": "proliferation inhibitory activity against A2780 cells (CellTiter-Glo)", "assay_type": "cell-based", "settings": "A2780, 72 h, 1 μM test compound, 3 days of culture, read-out: proliferation inhibitory rate (%) of A2780 cells", "method": "The proliferation inhibitory activity of the compound of the present invention against human ovarian cancer cell A2780 was evaluated by the following method.\nHuman ovarian cancer cells A2780 were seeded in a 384 well culture plate at 1000 cells in 30 μL of medium per well by using RPMI-1640 medium (Wako Pure Chemical Industries, Ltd.) containing 10% fetal bovine serum and penicillin/streptomycin. The next day, 10 μL of RPMI-1640 medium containing the test compound was added to the cells. After 3 days of culture, 20 μL of CellTiter-Glo Luminescent Cell Viability Assay solution (Promega, Fitchburg, Wis., US) was added. The luminescence signal was measured using EnVision (PerkinElmer, Waltham, Mass., US) and the inhibitory rate (%) of the test compound was calculated with a well free of seeding of cell as 100% inhibition."}}, "data": [{"smiles": "Cc1cc(N2CC[C@@](C#N)(C3CC3)C2=O)cc(NC(=O)Cc2ccccc2)n1", "note": "[Example 20, N-(4-((3S)-3-cyano-3-cyclopropyl-2-oxopyrrolidin-1-yl)-6-methylpyridin-2-yl)-2-phenylacetamide]", "values": [{"measurement": "inhibition at 0.3 µM", "setting": "human PRS protein", "result": 94, "unit": "%"}, {"measurement": "inhibition at 1 µM", "setting": "[1]", "result": 63, "unit": "%"}]}, {"smiles": "Cn1cc(-c2cccc(CC(=O)Nc3cc(N4CC[C@@](C#N)(C5CC5)C4=O)ccn3)c2)cn1", "note": "[Example 26, N-(4-((3S)-3-cyano-3-cyclopropyl-2-oxopyrrolidin-1-yl)pyridin-2-yl)-2-(3-(1-methyl-1H-pyrazol-4-yl)phenyl)acetamide]", "values": [{"measurement": "inhibition at 0.3 µM", "setting": "human PRS protein", "result": 100, "unit": "%"}, {"measurement": "inhibition at 1 µM", "setting": "[1]", "result": 92, "unit": "%"}]}, {"smiles": "Cc1cc(N2CC[C@@](C#N)(C3CC3)C2=O)cc(NC(=O)Cc2cccc3ccccc23)n1", "note": "[Example 27, N-(4-((3S)-3-cyano-3-cyclopropyl-2-oxopyrrolidin-1-yl)-6-methylpyridin-2-yl)-2-(1-naphthyl)acetamide]", "values": [{"measurement": "inhibition at 0.3 µM", "setting": "human PRS protein", "result": 97, "unit": "%"}, {"measurement": "inhibition at 1 µM", "setting": "[1]", "result": 74, "unit": "%"}]}, {"smiles": "N#C[C@@]1(C2CC2)CCN(c2ccnc(NC(=O)Cc3cccc(-c4ccncc4)c3)c2)C1=O", "note": "[Example 29, N-(4-((3S)-3-cyano-3-cyclopropyl-2-oxopyrrolidin-1-yl)pyridin-2-yl)-2-(3-(pyridin-4-yl)phenyl)acetamide]", "values": [{"measurement": "inhibition at 0.3 µM", "setting": "human PRS protein", "result": 97, "unit": "%"}, {"measurement": "inhibition at 1 µM", "setting": "[1]", "result": 60, "unit": "%"}]}, {"smiles": "Cc1cc(N2CC[C@@](C#N)(C3CC3)C2=O)cc(NC(=O)Cc2cccc(-c3cnn(C)c3)c2)n1", "note": "[Example 30, N-(4-((3S)-3-cyano-3-cyclopropyl-2-oxopyrrolidin-1-yl)-6-methylpyridin-2-yl)-2-(3-(1-methyl-1H-pyrazol-4-yl)phenyl)acetamide]", "values": [{"measurement": "inhibition at 0.3 µM", "setting": "human PRS protein", "result": 99, "unit": "%"}, {"measurement": "inhibition at 1 µM", "setting": "[1]", "result": 99, "unit": "%"}]}, {"smiles": "Cn1cc(-c2cc(F)cc(CC(=O)Nc3cc(N4CC[C@@](C#N)(C5CC5)C4=O)ccn3)c2)cn1", "note": "[Example 35, N-(4-((3S)-3-cyano-3-cyclopropyl-2-oxopyrrolidin-1-yl)pyridin-2-yl)-2-(3-fluoro-5-(1-methyl-1H-pyrazol-4-yl)phenyl)acetamide]", "values": [{"measurement": "inhibition at 0.3 µM", "setting": "human PRS protein", "result": 102, "unit": "%"}, {"measurement": "inhibition at 1 µM", "setting": "[1]", "result": 97, "unit": "%"}]}, {"smiles": "CCn1cc(-c2cccc(CC(=O)Nc3cc(N4CC[C@@](C#N)(C5CC5)C4=O)ccn3)c2)cn1", "note": "[Example 37, N-(4-((3S)-3-cyano-3-cyclopropyl-2-oxopyrrolidin-1-yl)pyridin-2-yl)-2-(3-(1-ethyl-1H-pyrazol-4-yl)phenyl)acetamide]", "values": [{"measurement": "inhibition at 0.3 µM", "setting": "human PRS protein", "result": 99, "unit": "%"}, {"measurement": "inhibition at 1 µM", "setting": "[1]", "result": 90, "unit": "%"}]}, {"smiles": "N#C[C@@]1(C2CC2)CCN(c2ccnc(NC(=O)Cc3cccc(-c4cnn(CCc5ccccc5)c4)c3)c2)C1=O", "note": "[Example 88, N-(4-((3S)-3-cyano-3-cyclopropyl-2-oxopyrrolidin-1-yl)pyridin-2-yl)-2-(3-(1-(2-phenylethyl)-1H-pyrazol-4-yl)phenyl)acetamide]", "values": [{"measurement": "inhibition at 0.3 µM", "setting": "human PRS protein", "result": 97, "unit": "%"}]}, {"smiles": "CS(=O)(=O)CCn1cc(-c2cccc(CC(=O)Nc3cc(N4CC[C@@](C#N)(C5CC5)C4=O)ccn3)c2)cn1", "note": "[Example 89, N-(4-((3S)-3-cyano-3-cyclopropyl-2-oxopyrrolidin-1-yl)pyridin-2-yl)-2-(3-(1-(2-(methylsulfonyl)ethyl)-1H-pyrazol-4-yl)phenyl)acetamide]", "values": [{"measurement": "inhibition at 0.3 µM", "setting": "human PRS protein", "result": 100, "unit": "%"}]}, {"smiles": "N#C[C@@]1(C2CC2)CCN(c2ccnc(NC(=O)Cc3cccc(-c4cnn(CC(C(F)(F)F)C(F)(F)F)c4)c3)c2)C1=O", "note": "[Example 92, N-(4-((3S)-3-cyano-3-cyclopropyl-2-oxopyrrolidin-1-yl)pyridin-2-yl)-2-(3-(1-(3,3,3-trifluoro-2-(trifluoromethyl)propyl)-1H-pyrazol-4-yl)phenyl)acetamide]", "values": [{"measurement": "inhibition at 0.3 µM", "setting": "human PRS protein", "result": 93, "unit": "%"}]}, {"smiles": "N#C[C@@]1(C2CC2)CCN(c2ccnc(NC(=O)Cc3cccc(-c4cnn(CC(F)(F)C(F)(F)F)c4)c3)c2)C1=O", "note": "[Example 96, N-(4-((3S)-3-cyano-3-cyclopropyl-2-oxopyrrolidin-1-yl)pyridin-2-yl)-2-(3-(1-(2,2,3,3,3-pentafluoropropyl)-1H-pyrazol-4-yl)phenyl)acetamide]", "values": [{"measurement": "inhibition at 0.3 µM", "setting": "human PRS protein", "result": 96, "unit": "%"}]}, {"smiles": "N#C[C@@]1(C2CC2)CCN(c2cc(NC(=O)Cc3cccc(Cl)c3)ncn2)C1=O", "note": "[Example 126, 2-(3-chlorophenyl)-N-(6-((3S)-3-cyano-3-cyclopropyl-2-oxopyrrolidin-1-yl)pyrimidin-4-yl)acetamide]", "values": [{"measurement": "inhibition at 0.3 µM", "setting": "human PRS protein", "result": 57, "unit": "%"}]}, {"smiles": "N#C[C@@]1(C2CC2)CCN(c2cc(NC(=O)Cc3ccccc3)ncn2)C1=O", "note": "[Example 127, N-(6-((3S)-3-cyano-3-cyclopropyl-2-oxopyrrolidin-1-yl)pyrimidin-4-yl)-2-phenylacetamide]", "values": [{"measurement": "inhibition at 0.3 µM", "setting": "human PRS protein", "result": 65, "unit": "%"}]}, {"smiles": "N#C[C@@]1(C2CC2)CCN(c2ccnc(NC(=O)Cc3cccc4ccccc34)n2)C1=O", "note": "[Example 128, N-(4-((3S)-3-cyano-3-cyclopropyl-2-oxopyrrolidin-1-yl)pyrimidin-2-yl)-2-(1-naphthyl)acetamide]", "values": [{"measurement": "inhibition at 0.3 µM", "setting": "human PRS protein", "result": 95, "unit": "%"}]}, {"smiles": "N#C[C@@]1(C2CC2)CCN(c2ccnc(NC(=O)Cc3cccc(Cl)c3)n2)C1=O", "note": "[Example 129, 2-(3-chlorophenyl)-N-(4-((3S)-3-cyano-3-cyclopropyl-2-oxopyrrolidin-1-yl)pyrimidin-2-yl)acetamide]", "values": [{"measurement": "inhibition at 0.3 µM", "setting": "human PRS protein", "result": 87, "unit": "%"}]}, {"smiles": "N#C[C@@]1(C2CC2)CCN(c2ccnc(NC(=O)Cc3ccc(Cl)s3)n2)C1=O", "note": "[Example 130, 2-(5-chloro-2-thienyl)-N-(4-((3S)-3-cyano-3-cyclopropyl-2-oxopyrrolidin-1-yl)pyrimidin-2-yl)acetamide]", "values": [{"measurement": "inhibition at 0.3 µM", "setting": "human PRS protein", "result": 84, "unit": "%"}]}, {"smiles": "Cc1cc(N2CC[C@@](C#N)(C3CC3)C2=O)nc(NC(=O)Cc2ccccc2)n1", "note": "[Example 131, N-(4-((3S)-3-cyano-3-cyclopropyl-2-oxopyrrolidin-1-yl)-6-methylpyrimidin-2-yl)-2-phenylacetamide]", "values": [{"measurement": "inhibition at 0.3 µM", "setting": "human PRS protein", "result": 89, "unit": "%"}]}]}
